Assay results taken from US9783499B2, “Quinoline derivatives and their applications” (Shenyang Pharmaceutical University, priority 2012, dated 2017).

Columns and labels:
Type in all cases: cell-based
Settings in all cases: 72 hours
[1] = system: H460 (human lung cancer cell); assay: In vitro anti-tumor cellular activity (MTT), H460
Description: (§1) After pouring the cell dissociation buffer to the centrifugetube, nutrient solution was added to stop digestion. The centrifugetube were centrifuged for 10 min under 800 r/min, the liquid supernatant was removed, 5 mL culture solution was added, after mixing by pipetting the cell, took 10 μL cell suspension to the cell counting plat, and adjusted the cell concentration to 10^4/well. Among the 96 wells, A1 is empty, 100 μL of cell suspension were added to the other wells. The 96 well plates were incubated in the incubator for 24 h. […] The 96-well plates were placed in an incubator and cultivated for 72 hours. (3) The culture media containing the compounds in the 96-well plates was discarded, and the cells were washed with phosphate buffered solution (PBS) twice. Each well was added with 100 μL MTT (tetrazole) (0.5 mg/mL), and then placed in an incubator to incubate for 4 hours, after which MTT solution was discarded and 100 μL dimethyl sulfoxide was added thereto.

[2] = system: HT-29 (colon cancer cell); assay: In vitro anti-tumor cellular activity (MTT), HT-29
Description: as §1

[3] = system: MKN-45 (human gastric carcinoma cell); assay: In vitro anti-tumor cellular activity (MTT), MKN-45
Description: as §1

[4] = system: SMMC-7721 (hepatoma cell); assay: In vitro anti-tumor cellular activity (MTT), SMMC-7721
Description: as §1

[5] = system: MDA-MB-231 (human beast cancer cell); assay: In vitro anti-tumor cellular activity (MTT), MDA-MB-231
Description: as §1

[6] = system: U87MG (Human malignant glioblastoma cell); assay: In vitro anti-tumor cellular activity (MTT), U87MG
Description: as §1

Row | Molecule | H460 IC50 [1] [µg/mL] | HT-29 IC50 [2] [µg/mL] | MKN-45 IC50 [3] [µg/mL] | SMMC-7721 IC50 [4] [µg/mL] | MDA-MB-231 IC50 [5] [µg/mL] | U87MG IC50 [6] [µg/mL]
1 | N.N.[Cl][Pt][Cl] [Cisplatin, reference compound] | 0.23 | 1.0 | 0.68 | 0.90 | 0.46 | 0.19
2 | COc1cc2c(Oc3ccc(NC(=O)N/N=C/c4ccccc4)cc3F)ccnc2cc1OCCCN1CCC(C)CC1 [Example 2, (E)-N^1-(3-fluoro-4-(6-methoxy-7-(3-(4-methylpiperidin-1-yl)propoxy)quinoline-4-yloxy)phenyl)-N^4-(benzaldehyde)semicarbazone] | 0.15 | 0.17 | 0.18 | 0.43 | 0.12 | 0.31
3 | COc1cc2c(Oc3ccc(NC(=O)N/N=C/c4ccccc4)cc3F)ccnc2cc1OCCCN1CCOCC1 [Example 3, (E)-N^1-(3-fluoro-4-(6-methoxy-7-(3-(morpholin-4-yl)propoxy)quinoline-4-yloxy)phenyl)-N^4-(benzaldehyde)semicarbazone] | 0.11 | 0.42 | 0.12 | 2.1 | 0.13 | 0.33
4 | COc1cc2c(Oc3ccc(NC(=O)N/N=C/c4ccccc4)cc3F)ccnc2cc1OCCCN1CCN(C)CC1 [Example 4, (E)-N^1-(3-fluoro-4-(6-methoxy-7-(3-(4-methylpiperazin-1-yl)propoxy)quinoline-4-lyoxy)phenyl)-N^4-(benzaldehyde)semicarbazone] | 0.084 | 0.093 | 0.11 | 0.23 | 0.066 | 0.25
5 | COc1cc2c(Oc3ccc(NC(=O)N/N=C/c4ccccc4)cc3F)ccnc2cc1OCCCN1CCCCC1 [Example 5, (E)-N^1-(3-fluoro-4-(6-methoxy-7-(3-(piperidin-1-yl)propoxy)quinoline-4-yloxy)phenyl)-N^4-(benzaldehyde)semicarbazone] | 0.012 | 0.0088 | 0.012 | 0.16 | 0.010 | 0.19
6 | COc1cccc(/C=N/NC(=O)Nc2ccc(Oc3ccnc4cc(OCCCN5CCC(C)CC5)c(OC)cc34)c(F)c2)c1 [Example 7] | 0.0012 | 0.0006 | 0.0021 | 0.13 | 0.011 | 0.10
7 | COc1cc2c(Oc3ccc(NC(=O)N/N=C/c4ccc(F)cc4)cc3F)ccnc2cc1OCCCN1CCC(C)CC1 [Example 10, (E)-N^1-(3-fluoro-4-(6-methoxy-7-(3-(4-methylpiperidin-1-yl)propoxy)quinoline-4-lyoxy)phenyl)-N^4-(4-fluorobenzaldehyde)semicarbazone] | 0.0092 | 0.0015 | 0.038 | 0.16 | 0.011 | 0.019
8 | COc1cc2c(Oc3ccc(NC(=O)NN=Cc4ccc(F)cc4Cl)cc3F)ccnc2cc1OCCCN1CCOCC1 [Example 14, (E)-N^1-(3-fluoro-4-(6-methoxy-7-(3-(morpholin-4-yl)propoxy)quinoline-4-yloxy)phenyl)-N^4-(2-chloro-4-fluorobenzaldehyde)semicarbazone] | 1.2 | 0.81 | 0.65 | 1.5 | 0.90 | 1.4
9 | COc1cc2c(Oc3ccc(NC(=O)N/N=C(\C)c4ccccc4)cc3F)ccnc2cc1OCCCN1CCCCC1 [Example 17, (E)-N^1-(3-fluoro-4-(6-methoxy-7-(3-(piperidin-1-yl)propoxy)quinoline-4-yloxy)phenyl)-N^4-(acetophenone)semicarbazone] | 0.069 | 0.0057 | 0.072 | 0.13 | 0.071 | 0.24
10 | COc1cc2c(Oc3ccc(NC(=O)N/N=C/c4ccc(Cl)cc4Cl)cc3F)ccnc2cc1OCCCN1CCCC1 [Example 19, (E)-N^1-(3-fluoro-4-(6-methoxy-7-(3-(pyrrolidin-1-yl)propox)quinoline-4-yloxy)phenyl)-N^4-(2,4-dichlorobenzaldehyde)semicarbozone] | 0.96 | 1.4 | 0.71 | 0.97 | 1.2 | 1.9
11 | CCC(=NNC(=O)Nc1ccc(Oc2ccnc3cc(OCCCN4CCCCC4)c(OC)cc23)c(F)c1)c1ccccc1 [Example 30, (E)-N^1-(3-fluoro-4-(6-methoxy-7-(3-(piperidin-1-yl)propoxy)quinoline-4-yloxy)phenyl)-N^4-(propiophenone)thiosemicarbazone] | 0.0012 | – | 0.0020 | 0.44 | 0.0021 | 0.051
12 | COc1cc2c(Oc3ccc(NC(=S)NN=Cc4ccc(Cl)cc4Cl)cc3F)ccnc2cc1OCCCN1CCN(C)CC1 [Example 40, (E)-N^1-(3-fluoro-4-(6-methoxy-7-(3-(4-methyl-1-piperazinyl)propoxy)quinoline-4-yloxy)phenyl)-N^4-(2,4-dichlorobenzaldehyde)thiosemicarbazone] | 2.8 | 1.9 | 1.5 | 3.1 | 1.9 | –
13 | COc1cc2c(Oc3ccc(NC(=S)NN=Cc4ccc(F)cc4Cl)cc3F)ccnc2cc1OCCCN1CCN(C)CC1 [Example 42, (E)-N^1-(3-fluoro-4-(6-methoxy-7-(3-(4-methyl-1-piperazinyl)propoxy)quinoline-4-yloxy)phenyl)-N^4-(2-chloro-4-fluorobenzaldehyde)thiosemicarbazone] | 0.38 | – | 0.34 | 0.96 | 0.29 | 1.0
14 | (E)-N^1-(3-fluoro-4-(6-methoxy-7-(3-(morpholin-4-yl)propoxy)quinoline-4-oxy)phenyl)-N^4-(3,4-difluorobenzaldehyde)semicarbazone [Example 23] | 3.6 | – | 5.7 | 5.9 | 2.9 | 5.6
15 | (E)-N^1-(3-fluoro-4-(6-methoxy-7-(3-(piperidin-1-yl)propoxy)quinoline-4-yloxy)phenyl)-N^4-(2-chloro-4-fluorobenzaldehyde)thiosemicarbazone [Example 43] | 0.0067 | 0.0031 | – | 0.069 | 0.0029 | 0.092
